Earlier results as cited in patent US8106000B2, “Colonic delivery of adsorbents” (Da Volterra, priority 2005, dated 2012).

Details: oral doses 1 to […]

## O=C(O)c1cn(C2CC2)c2cc(N3CCNCC3)c(F)cc2c1=O [ciprofloxacin]
  expected residual ciprofloxacin in feces (% of oral doses): ≤ 25%
